# Laboratory results from ChEMBL document CHEMBL1153563, “Comparative in vitro activities of caspofungin and micafungin, determined using the method of the European Committee on Antimicrobial Susceptibility Testing, against yeast isolates obtained in France in 2005-2006” (2008).
# *1 amine or outer side, *2 acyl side, *3 side chain or, on linkers, in order; H or OH if unused. Where a SMILES comes first, the peptide text is derived from it. Bridges are numbered along the chain shown (N, C = ends). [ ]: non-standard residue; d: D form. The star is where a group is joined. hTyr(3S-OH,4S-OH,3'-OSO3H) = N[C@H](C(=O)O)[C@H](O)[C@@H](O)c1ccc(O)c(OS(=O)(=O)O)c1; Orn(4R-OH,5R-OH) = O=C([C@H](C[C@@H](O)[C@@H](O)N[*:3])N[*:1])[*:2]; Pro(3S-OH,4S-Me) = C[C@H]1CN[C@H](C(=O)O)[C@H]1O; X1 = CCCCCOc1ccc(-c2cc(-c3ccc(C(=O)*)cc3)no2)cc1; Gln(3R-OH) = NC(=O)C[C@@H](O)[C@H](N)C(=O)O; Hyp = O=C(O)[C@@H]1C[C@@H](O)CN1
# Assays:
# Format in all cases: functional
# [1] = system: Candida albicans; assay: Antifungal activity against Candida albicans after 24 to 48 hrs by AFST-EUCAST based broth microdilution method
# [2] = system: Nakaseomyces glabratus; assay: Antifungal activity against Candida glabrata after 24 to 48 hrs by AFST-EUCAST based broth microdilution method
# [3] = system: Candida parapsilosis; assay: Antifungal activity against Candida parapsilosis ATCC 22019 after 24 to 48 hrs by AFST-EUCAST based broth microdilution method; settings: Lodderomyces parapsilosis
# [4] = system: Candida tropicalis; assay: Antifungal activity against Candida tropicalis after 24 to 48 hrs by AFST-EUCAST based broth microdilution method
# [5] = system: Meyerozyma guilliermondii; assay: Antifungal activity against Candida guilliermondii after 24 to 48 hrs by AFST-EUCAST based broth microdilution method
# [6] = system: Pichia kudriavzevii; assay: Antifungal activity against Candida krusei ATCC 6258 after 24 to 48 hrs by AFST-EUCAST based broth microdilution method
# [7] = system: Kluyveromyces marxianus; assay: Antifungal activity against Candida kefyr after 24 to 48 hrs by AFST-EUCAST based broth microdilution method
# [8] = system: [Candida] haemuloni; assay: Antifungal activity against Candida haemulonii after 24 to 48 hrs by AFST-EUCAST based broth microdilution method; settings: Candidozyma haemuli
# [9] = system: Clavispora lusitaniae; assay: Antifungal activity against Candida lusitaniae after 24 to 48 hrs by AFST-EUCAST based broth microdilution method
# [10] = system: Meyerozyma caribbica; assay: Antifungal activity against Candida fermentati after 24 to 48 hrs by AFST-EUCAST based broth microdilution method
# [11] = system: Candida dubliniensis; assay: Antifungal activity against Candida dubliniensis after 24 to 48 hrs by AFST-EUCAST based broth microdilution method
# [12] = system: Yarrowia lipolytica; assay: Antifungal activity against Candida lipolytica after 24 to 48 hrs by AFST-EUCAST based broth microdilution method
# [13] = system: Debaryomyces hansenii; assay: Antifungal activity against Candida famata after 24 to 48 hrs by AFST-EUCAST based broth microdilution method
# [14] = system: Wickerhamomyces anomalus; assay: Antifungal activity against Candida pelliculosa after 24 to 48 hrs by AFST-EUCAST based broth microdilution method; settings: Hansenula anomala
# [15] = system: Diutina rugosa; assay: Antifungal activity against Candida rugosa after 24 to 48 hrs by AFST-EUCAST based broth microdilution method
# [16] = system: Cyberlindnera jadinii; assay: Antifungal activity against Candida utilis after 24 to 48 hrs by AFST-EUCAST based broth microdilution method; settings: Williopsis jadinii
# [17] = system: [Candida] inconspicua; assay: Antifungal activity against Candida inconspicua after 24 to 48 hrs by AFST-EUCAST based broth microdilution method; settings: Pichia inconspicua
# [18] = system: [Candida] intermedia; assay: Antifungal activity against Candida intermedia after 24 to 48 hrs by AFST-EUCAST based broth microdilution method; settings: Sungouiella intermedia
# [19] = system: Candida africana; assay: Antifungal activity against Candida africana after 24 to 48 hrs by AFST-EUCAST based broth microdilution method
# [20] = system: Pichia fermentans; assay: Antifungal activity against Candida lambica after 24 to 48 hrs by AFST-EUCAST based broth microdilution method
# [21] = system: Nakaseomyces nivariensis; assay: Antifungal activity against Candida nivariensis after 24 to 48 hrs by AFST-EUCAST based broth microdilution method
# [22] = system: Pichia norvegensis; assay: Antifungal activity against Candida norvegensis after 24 to 48 hrs by AFST-EUCAST based broth microdilution method
# [23] = system: Kluyveromyces lactis; assay: Antifungal activity against Candida sphaerica after 24 to 48 hrs by AFST-EUCAST based broth microdilution method
# [24] = system: Saccharomyces cerevisiae; assay: Antifungal activity against Saccharomyces cerevisiae after 24 to 48 hrs by AFST-EUCAST based broth microdilution method
# [25] = system: Geotrichum; assay: Antifungal activity against Geotrichum after 24 to 48 hrs by AFST-EUCAST based broth microdilution method
# [26] = system: Cyberlindnera saturnus; assay: Antifungal activity against Williopsis saturnus after 24 to 48 hrs by AFST-EUCAST based broth microdilution method
# [27] = system: Kodamaea ohmeri; assay: Antifungal activity against Kodamaea ohmeri after 24 to 48 hrs by AFST-EUCAST based broth microdilution method
# [28] = system: Zygosaccharomyces; assay: Antifungal activity against Zygosaccharomyces after 24 to 48 hrs by AFST-EUCAST based broth microdilution method
# [29] = system: Cryptococcus neoformans; assay: Antifungal activity against […] after 24 to 48 hrs by AFST-EUCAST based broth microdilution method
# [30] = system: Trichosporon; assay: Antifungal activity against Trichosporon after 24 to 48 hrs by AFST-EUCAST based broth microdilution method
# [31] = system: Rhodotorula mucilaginosa; assay: Antifungal activity against Rhodotorula mucilaginosa after 24 to 48 hrs by AFST-EUCAST based broth microdilution method
structure (smiles),measurement,setting,value
"CCCCCOc1ccc(-c2cc(-c3ccc(C(=O)N[C@H]4C[C@@H](O)[C@@H](O)NC(=O)[C@@H]5[C@@H](O)[C@@H](C)CN5C(=O)[C@H]([C@H](O)CC(N)=O)NC(=O)[C@H]([C@H](O)[C@@H](O)c5ccc(O)c(OS(=O)(=O)O)c5)NC(=O)[C@@H]5C[C@@H](O)CN5C(=O)[C@H]([C@@H](C)O)NC4=O)cc3)no2)cc1 [MICAFUNGIN] (X1-[Orn(4R-OH,5R-OH)]T[Hyp][hTyr(3S-OH,4S-OH,3'-OSO3H)][Gln(3R-OH)][Pro(3S-OH,4S-Me)]; lactam 1-C)",MIC50,[1],0.03 µg/mL
same,MIC90,[1],0.06 µg/mL
same,MIC50,[2],0.03 µg/mL
same,MIC90,[2],0.06 µg/mL
same,MIC50,[3],2 µg/mL
same,MIC90,[3],2 µg/mL
same,MIC50,[4],0.06 µg/mL
same,MIC90,[4],0.125 µg/mL
same,MIC50,[5],1 µg/mL
same,MIC90,[5],2 µg/mL
same,MIC50,[6],0.25 µg/mL
same,MIC90,[6],0.25 µg/mL
same,MIC50,[7],0.125 µg/mL
same,MIC90,[7],0.25 µg/mL
same,MIC50,[8],0.25 µg/mL
same,MIC90,[8],0.25 µg/mL
same,MIC50,[9],0.25 µg/mL
same,MIC90,[9],0.5 µg/mL
same,MIC50,[10],1 µg/mL
same,MIC90,[10],1 µg/mL
same,MIC50,[11],0.06 µg/mL
same,MIC90,[11],1 µg/mL
same,MIC50,[12],0.06 µg/mL
same,MIC90,[12],1 µg/mL
same,MIC50,[13],0.06 µg/mL
same,MIC90,[13],1 µg/mL
same,MIC50,[14],0.06 µg/mL
same,MIC90,[14],1 µg/mL
same,MIC50,[15],0.06 µg/mL
same,MIC90,[15],1 µg/mL
same,MIC50,[16],0.06 µg/mL
same,MIC90,[16],1 µg/mL
same,MIC50,[17],0.06 µg/mL
same,MIC90,[17],1 µg/mL
same,MIC50,[18],0.06 µg/mL
same,MIC90,[18],1 µg/mL
same,MIC50,[19],0.06 µg/mL
same,MIC90,[19],1 µg/mL
same,MIC50,[20],0.06 µg/mL
same,MIC90,[20],1 µg/mL
same,MIC50,[21],0.06 µg/mL
same,MIC90,[21],1 µg/mL
same,MIC50,[22],0.06 µg/mL
same,MIC90,[22],1 µg/mL
same,MIC50,[23],0.06 µg/mL
same,MIC90,[23],1 µg/mL
same,MIC50,[24],0.25 µg/mL
same,MIC90,[24],16 µg/mL
same,MIC50,[25],0.25 µg/mL
same,MIC90,[25],16 µg/mL
same,MIC50,[26],0.25 µg/mL
same,MIC90,[26],16 µg/mL
same,MIC50,[27],0.25 µg/mL
same,MIC90,[27],16 µg/mL
same,MIC50,[28],0.25 µg/mL
same,MIC90,[28],16 µg/mL
same,MIC50,[29],16 µg/mL
same,MIC90,[29],16 µg/mL
same,MIC50,[30],16 µg/mL
same,MIC50,[31],16 µg/mL
